The supplement of paper PMC4862054
Values joined by “and” are separate entries in the source; they are usually repeats but may differ in a detail not shown here. Identical values can stand only once.

Columns and labels:
Settings in all cases: incubation time: 72 h
CAL-148 [1] = assay: normalised viability (% of control), CellTiter-Blue; higher = more viable cells (about 100 = DMSO control)
Experimental: (§1)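 DSRT, CellTiter-Blue viability, 72 h incubation. Signal is normalised to DMSO and benzethonium chloride controls. Value is the normalised response at dose 9.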

CAL-51 [2] = assay: as above
Experimental: as §1

CAL-85-1 [3] = assay: as above
Experimental: as §1

DU-4475 [4] = assay: as above
Experimental: as §1

HDQ-P1 [5] = assay: as above
Experimental: as §1

MDA-MB-453 [6] = assay: as above
Experimental: as §1

BT-474 = assay: normalised response (% of control), CellTiter-Glo; higher = more viable cells (100 = DMSO, 0 = benzethonium chloride kill control)
Outline: (§2)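 Every value is a normalised signal taken at one concentration of a dilution series. Compound was placed in 384-well plates at 5 concentrations in 10-fold steps over a compound-specific 10,000-fold range, and 20 µl of breast cancer cell suspension was seeded onto it. After 72 h, CellTox Green fluorescence (485/520 nm) was measured first and CellTiter-Glo luminescence second, following 10 min at room temperature. Each plate was scaled to 0.1 % DMSO (100) and a positive kill control (0).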

BT-549 = assay: as above
Outline: as §2

CAL-120 = assay: as above
Outline: as §2

CAL-148 [7] = assay: as above
Outline: as §2

CAL-51 [8] = assay: as above
Outline: as §2

CAL-85-1 [9] = assay: as above
Outline: as §2

DU-4475 [10] = assay: as above
Outline: as §2

HCC1143 = assay: as above
Outline: as §2

HCC1599 = assay: as above
Outline: as §2

HCC1937 = assay: as above
Outline: as §2

HDQ-P1 [11] = assay: as above
Outline: as §2

Hs578T = assay: as above
Outline: as §2

MCF-10A = assay: as above
Outline: as §2

MDA-MB-231 = assay: as above
Outline: as §2

MDA-MB-436 = assay: as above
Outline: as §2

MDA-MB-453 [12] = assay: as above
Outline: as §2

MDA-MB-468 = assay: as above
Outline: as §2

MFM-223 = assay: as above
Outline: as §2

SK-BR-3 = assay: as above
Outline: as §2

| Structure (SMILES) | normalised viability (CAL-148 [1]) | normalised viability (CAL-51 [2]) | normalised viability (CAL-85-1 [3]) | normalised viability (DU-4475 [4]) | normalised viability (HDQ-P1 [5]) | normalised viability (MDA-MB-453 [6]) | normalised response (BT-474) | normalised response (BT-549) | normalised response (CAL-120) | normalised response (CAL-148 [7]) | normalised response (CAL-51 [8]) | normalised response (CAL-85-1 [9]) | normalised response (DU-4475 [10]) | normalised response (HCC1143) | normalised response (HCC1599) | normalised response (HCC1937) | normalised response (HDQ-P1 [11]) | normalised response (Hs578T) | normalised response (MCF-10A) | normalised response (MDA-MB-231) | normalised response (MDA-MB-436) | normalised response (MDA-MB-453 [12]) | normalised response (MDA-MB-468) | normalised response (MFM-223) | normalised response (SK-BR-3) |
| --- | --- | --- | --- | --- | --- | --- | --- | --- | --- | --- | --- | --- | --- | --- | --- | --- | --- | --- | --- | --- | --- | --- | --- | --- | --- |
| NC(=O)c1cccc2cn(-c3ccc([C@@H]4CCCNC4)cc3)nc12 [MK-4827] (10000 nM) | 59.2% | 40.7% | 73.2% | 32.7% | 94% | 63.2% | 85.8% | 83.7% | 93.2% | 71.8% | 65.8% | 81.8% | 69.3% | 87.3% | 91.4% | 101% | 94.3% | 85.2% | 101% | 87.4% | 68.9% | 108% | 45.8% | 106% | 73.3% |
| C[C@]12C=CC(=O)C=C1CC[C@@H]1[C@@H]2C(=O)C[C@@]2(C)[C@H]1CC[C@]2(O)C(=O)CO [Prednisone] (10000 nM) | 103% | 101% | 103% | 99.3% | 122% | 88% | 105% | 94.6% | 49% | 109% | 118% | 98.6% | 107% | 103% | 102% | 95.4% | 98.6% | 102% | 113% | 100% | 98.2% | 100% | 104% | 97.4% | 107% |
| Cc1cc2c(F)c(Oc3ncnn4cc(OC[C@@H](C)O)c(C)c34)ccc2[nH]1 [Brivanib] (1000 nM) | 86.8% | 101% | 86.9% | 107% | 117% | 99.1% | 108% | 98.3% | 112% | 112% | 83% | 93.4% | 103% | 100% | 104% | 95.1% | 97.7% | 101% | 108% | 104% | 112% | 108% | 107% | 110% | 113% |
| CO[C@H](C(=O)[C@@H](O)[C@@H](C)O)[C@@H]1Cc2cc3cc(O[C@H]4C[C@@H](O[C@@H]5C[C@@H](O)[C@H](O)[C@@H](C)O5)[C@H](O)[C@@H](C)O4)c(C)c(O)c3c(O)c2C(=O)[C@H]1O[C@H]1C[C@@H](O[C@@H]2C[C@@H](O)[C@@H](O[C@@H]3C[C@](C)(O)[C@H](O)[C@@H](C)O3)[C@@H](C)O2)[C@H](O)[C@@H](C)O1 [Plicamycin] (10000 nM) | 7.52% and 8.68% | 3.24% and 3.4% | 4.34% and 2.26% | 2.44% and 0.15% | 22.3% and 16% | 6.38% and 4.39% | 9.55% | 1.99% | 27% | 6.34% | 9.56% | 9.87% | 1.22% | 6.57% | 4.89% | 21% | 19.1% | 8.19% | 5.35% | 7.32% | 22.5% | 16.1% | 4.44% | 29.1% | 10.1% |
| COc1cc2c(Oc3ccc(NC(=O)C4(C(=O)Nc5ccc(F)cc5)CC4)cc3F)ccnc2cc1OCCCN1CCOCC1 [Foretinib] (1000 nM) | 25.8% | 24.8% | 66.8% | 29.4% | 45.4% | 51.8% | 73% | 75.5% | 68% | 48.9% | 67.3% | 90.3% | 80.8% | 69.2% | 104% | 72.5% | 66.1% | 76% | 60.7% | 60.2% | 73.3% | 125% | 34.1% | 44.6% | 98% |
| O=C(O)CC[C@H]1CC[C@@](c2cc(F)ccc2F)(S(=O)(=O)c2ccc(Cl)cc2)CC1 [MK-0752] (1000 nM) | 119% | 100% | 104% | 110% | 126% | 117% | 95.4% | 93% | 105% | 115% | 126% | 98.1% | 102% | 103% | 89% | 95.1% | 95.5% | 98.5% | 95.6% | 97% | 105% | 108% | 94% | 100% | 117% |
